Measured values as given in patent publication US20200032271A1, “COMBINATION THERAPY WITH LIPOSOMAL ANTISENSE OLIGONUCLEOTIDES” (Bio-Path Holdings, Inc., priority 2016, published 2020).
“And” between values parts separate entries of the source, which are not always exact repeats. Identical values can stand only once. [PEt] = P-ethoxy (ethyl phosphotriester) internucleoside linkage

Experiments:
BV173 cells = assay: Cell cycle analysis (7-AAD flow cytometry); type: cell-based, human; conditions: BP1001 1 day before dasatinib, harvested three days later (FIGS. 8A-D)
Method: Cells were then fixed and permeabilized for 1 h at 4° C. with 1×Fixation/Permeabilization buffer (Ebioscience, San Diego, Calif., USA). After permeabilization, cells were washed and incubated with 7-aminoactinomycin D (7-AAD, Biolegend, San Diego, Calif., USA) in the dark at 4° C. for about 30 min. Flow cytometric data acquisition was acquired using BD FACSDiva™ software (BD Biosciences, San Jose, Calif., USA). The flow cytometer was set to collect 20,000 events. Relative percentages in the different cell cycle phases (sub-G1, G1, S, G2/M) were reported.
[…] Three days later, cells were harvested and processed for flow cytometry.

[1] = tested on: imatinib-sensitive and imatinib-resistant CML cell lines; assay: Growth inhibition and ERK1,2/Akt phosphorylation in CML cell lines; type: cell-based; conditions: preclinical studies
Excerpt: (§1) BP1001 is a neutral liposome incorporated with the nuclease-resistant, hydrophobic P-ethoxy antisense oligos targeted to Grb2 mRNA. In preclinical studies, BP1001 was effective in inducing growth inhibition and decreasing ERK1,2 and Akt phosphorylation in imatinib-sensitive and imatinib-resistant CML cell lines.

[2] = tested on: peripheral blood and bone marrow blasts; assay: Anti-leukemia activity in patients (peripheral blood and bone marrow blasts, response); type: in vivo, human; conditions: for Bone marrow blasts (%) Nadir / Bone marrow blasts (%) Off-Rx / Peripheral blood blasts (%) Off-Rx / Peripheral blood blasts (%) Nadir: individual evaluable patients
Method: Peripheral blood assessments were done at baseline (within 14 days of study start), and on days 1, 8, 15, 22, at completion of cycle one, and as clinically indicated. Bone marrow assessments were done at baseline (within 14 days of study start), at completion of cycle one, cycle 2, and as clinically indicated. Baseline cytogenetics data were obtained before treatment. Molecular analysis was conducted to detect somatic mutations on the baseline bone marrow.
BP1001, as a single agent therapy, decreased >50% peripheral blood blasts in 9 of 21 patients, and decreased >50% bone marrow blasts in 3 of 21 patients (Table 8). […] Four patients completed 2 cycles of treatment and three patients completed 5 cycles of treatment (Table 8). These seven patients had diverse cytogenetics and molecular abnormalities such as JAK2 and NRAS mutations (Table 8). […]

[3] = tested on: 32Dp210 Bcr-Abl positive leukemia cells; assay: Survival of mice injected with 32Dp210 Bcr-Abl positive leukemia cells, first study; type: in vivo
Method: In one study, mice injected with 32Dp210 Bcr-Abl positive leukemia cells were treated with BP1001 (15 mg/kg/dose) or control (empty DOPC liposomes) intravenously beginning one day after injection of tumor cells, twice weekly for up to 6 weeks Mice were observed daily for moribundity/morbidity. All surviving mice were euthanized on Day 40. In mice injected with 32Dp210 Bcr-Abl positive leukemia cells, 60% treated with BP1001 survived to 40 days (end of study) compared to 17% of mice receiving empty liposomes. Mean survival duration in these treated animals was 31.6±13.1 days compared to 23.7±8.3 days in the empty liposome group (FIG. 6A).

[4] = Method: The potential toxicity of a twice weekly intravenously (slow bolus) administered BP1001 in Dutch Belted rabbits was conducted. BP1001 was administered over a 28-day period followed by a 2-week recovery phase.
Doses were administered on Study Days 1, 3, 8, 10, 15, 17, 22, and 24. The first day of dosing on the study was designated as Study Day 1. The doses were given at approximately the same time each day. Individual dose volumes were calculated based on the most recently recorded body weight for each animal. Study Day 1 dose levels were calculated on a pretest body weight.

[5] = tested on: 32Dp210 Bcr-Abl positive leukemia cells; assay: Survival of mice injected with 32Dp210 Bcr-Abl positive leukemia cells, second study; type: in vivo
Method: In a second study in mice injected with 32Dp210 Bcr-Abl positive leukemia cells, treatment groups received BP1001 at 5, 10, or 15 mg/kg/dose administered intravenously beginning one day after injection of tumor cells, twice weekly for up to 7 weeks. Control groups received DOPC liposomes containing an oligonucleotide of random sequence (15 mg/kg/dose) on the same schedule. Mice were observed daily for moribundity/morbidity. Surviving mice in the control groups were euthanized on Day 41, and in the treatment groups on Day 48.

[6] = tested on: acute myeloid leukemia (AML) cells; assay: Cytarabine cytotoxicity after BP1001 pretreatment; type: cell-based; conditions: preclinical studies
BV173 = assay: Inhibition of proliferation of leukemic cell lines by BP1001; type: cell-based, human; conditions: 5 days
Excerpt: as §1

K562 = assay: as above; type: cell-based, human; conditions: 4 days
Excerpt: as §1

ALL-1 = assay: as above; type: cell-based, human; conditions: 5 days
Excerpt: as §1

[7] = tested on: HL60 (Ph-negative, Bcr-Abl negative); assay: as above; type: cell-based, human; conditions: [BP1001] 0-12 μM, 5 days
Excerpt: as §1

CHO cells = assay: In vitro mammalian chromosome aberration test; type: cell-based; conditions: non-activated and S9-activated
Method: BP1001 was tested in the chromosome aberration assay using CHO cells in both the absence and presence of an Aroclor-induced S9 activation system. A preliminary toxicity test was performed to establish the dose range for the chromosome aberration assay. The chromosome aberration assay was used to evaluate the clastogenic potential of the BP1001. Based on the findings of this study, BP1001 was concluded to be negative for the induction of structural and numerical chromosome aberrations in CHO cells in both the non-activated and the S9-activated test systems.

[8] = of 21 evaluable patients, single agent
[9] = 15 mg/kg/dose i.v. twice weekly

Substance: BP1001: liposome-incorporated P-ethoxy antisense oligodeoxynucleotide (5′-ATATTTGGCGATGGCTTC-3′, SEQ ID NO: 1) specific to grb2 mRNA, in neutral DOPC liposomes (DNA, all [PEt], methylation of C not given here; incorporated in neutral DOPC liposomes)
- percentage of cells in sub-G1 phase (BV173 cells): 3.1%
- growth inhibition and decrease of ERK1,2 and Akt phosphorylation [1]: effective
- Bone marrow blasts (%) Nadir ([2]; 5 mg/m^2, no Ara-C): 10% and 4%
- Bone marrow blasts (%) Off-Rx ([2]; 5 mg/m^2, no Ara-C): 10% and 6%
- Peripheral blood blasts (%) Off-Rx ([2]; 5 mg/m^2, no Ara-C): 1% and 50% and 21% and 97% and 5% and 0%
- Bone marrow blasts (%) Nadir ([2]; 10 mg/m^2, no Ara-C): 76% and None and 38%
- Bone marrow blasts (%) Off-Rx ([2]; 10 mg/m^2, no Ara-C): 76% and 80% and 38%
- Peripheral blood blasts (%) Nadir ([2]; 10 mg/m^2, no Ara-C): 31% and 5% and 43%
- Peripheral blood blasts (%) Off-Rx ([2]; 10 mg/m^2, no Ara-C): 72% and 63% and 74%
- Bone marrow blasts (%) Nadir ([2]; 20 mg/m^2, no Ara-C): 3%
- Peripheral blood blasts (%) Nadir ([2]; 20 mg/m^2, no Ara-C): 0%
- Peripheral blood blasts (%) Off-Rx ([2]; 20 mg/m^2, no Ara-C): 1% and 0%
- Bone marrow blasts (%) Nadir ([2]; 40 mg/m^2, no Ara-C): None (2×) and 54%
- Bone marrow blasts (%) Off-Rx ([2]; 40 mg/m^2, no Ara-C): 36% and 80%
- Peripheral blood blasts (%) Nadir ([2]; 40 mg/m^2, no Ara-C): 3% and None (2×)
- Peripheral blood blasts (%) Off-Rx ([2]; 40 mg/m^2, no Ara-C): 19% and 80% and 97%
- Bone marrow blasts (%) Nadir ([2]; 60 mg/m^2, no Ara-C): 88% and None
- Bone marrow blasts (%) Off-Rx ([2]; 60 mg/m^2, no Ara-C): 88% and 92%
- Peripheral blood blasts (%) Nadir ([2]; 60 mg/m^2, no Ara-C): 93% and 7% and 17%
- Peripheral blood blasts (%) Off-Rx ([2]; 60 mg/m^2, no Ara-C): 98% and 24% and 82%
- Bone marrow blasts (%) Nadir ([2]; 90 mg/m^2, no Ara-C): None and 22%
- Bone marrow blasts (%) Off-Rx ([2]; 90 mg/m^2, no Ara-C): 17% and 22%
- Peripheral blood blasts (%) Nadir ([2]; 90 mg/m^2, no Ara-C): 0% and None (2×)
- Peripheral blood blasts (%) Off-Rx ([2]; 90 mg/m^2, no Ara-C): 0% and 42% and 92%
- Peripheral blood blasts (%) Nadir ([2]; BP1001 5 mg/m^2, no Ara-C): 0% (2×) and 7% and 5% and 82% and 2%
- patients with improvement of leukemia cutis [2, 8]: two
- patients with transient decline in blasts [2, 8]: six
- patients with ≥50% reduction in peripheral or bone marrow blasts ([2]; of 21 evaluable patients, single agent (Part A)): 10
- peripheral blasts after four BP1001 infusions ([2]; one CML blast crisis patient with T315I, from 81%): 5%
- patients with >50% decrease of bone marrow blasts ([2]; single agent therapy): 3 of 21
- patients with >50% decrease of peripheral blood blasts ([2]; single agent therapy): 9 of 21
- Mean survival duration [3, 9]: 31.6 ± 13.1 days
- mice surviving to 40 days (end of study) ([3]; 15 mg/kg/dose i.v. twice weekly from day 1 after tumor cells): 60%
- effects on coagulation parameters ([4]; rabbit): no observed effects
- toxicity (clinical observations, body weights, bone marrow cytology, clinical pathology, organ weights, microscopic findings) ([4]; rabbit, 3.75, 5.00 or 7.50 mg/kg i.v. slow bolus twice weekly, 28 days): no apparent toxicity
- Mean survival duration ([5]; 5 mg/kg/dose i.v. twice weekly): 20.8 ± 4.7 days
- Mean survival duration ([5]; 10 mg/kg/dose i.v. twice weekly): 22.2 ± 8.7 days
- Mean survival duration [5, 9]: 44.2 ± 8.5 days
- mice surviving to 48 days (end of study) [5, 9]: 80%
- effect of pretreatment on cytarabine cytotoxicity [6]: enhances cytarabine cytotoxicity
- IC50 (BV173): 8 µM
- Decrease in viability (BV173; [BP1001] 0-10 μM): 70%
- IC50 (K562): 8 µM
- Decrease in viability (K562; [BP1001] 0-12 μM): 80%
- IC50 (ALL-1): 4 µM
- Decrease in viability (ALL-1; [BP1001] 0-6 μM): 100%
- Decrease in viability [7]: 0%
- induction of structural and numerical chromosome aberrations (CHO cells): negative
